These results are taken from US20250333733A1, “NOVEL TARGETS AGAINST OVARIAN CANCER” (UNIVERSITY OF PUERTO RICO, priority 2022, published 2025).

In series [1] the test system is OVCAR3CIS cells. Kind of series: Colony formation assay after siRNA transfection. Format: cell-based. Particulars: single siRNA, vs NC-siRNA. How it is done:
(§1) SiRNA ON-TARGET plus SMARTpool (a mixture of 4 siRNA as a single tube) and a negative control siRNA (NC-siRNA) (Sigma-Aldrich) were used for transfection studies. CASC10, was targeted by using two siRNAs targeting different regions of the CASC10 RNA (e.g., CASC10-siRNA (1) and CASC10-siRNA (2)). OVCAR3CIS or SKOV3ip1CIS cells were seeded into 12-well plates at 3.0×10^4 cells/mL. The next day, siRNAs were mixed with HiPerfect transfection reagent (Qiagen, Valencia, CA) at a 1:2 ratio (SIRNA: HiPerfect) in serum and antibiotic-free Opti-MEM medium (Gibco) and added to the cells. After twenty-four hours the media was replaced by regular culture media, and cells were cultured and used for further experiments. To assess siRNA transfection efficiency, cells were collected 24 hours after siRNA transfection.
OVCAR3CIS cells (3.0×10^4 cells/mL) or SKOV3ip1CIS (3.0×10^4 cells/mL) were seeded into 12-well plates. Twenty-four hours later, cells were transfected with 100 nM (final concentration) of each siRNA. […] Colonies of at least 50 cells were counted using a light microscope (CKX41: Olympus, Center Valley, PA, USA) with a total magnification of 40x. […] Optical density (OD) was measured, and percentages of cell viability were calculated after blank OD subtraction. Untreated cells were assessed as 100% cell viability. […]

A further series has as its system CASC10. Kind of series: RT-qPCR of CASC10 expression after siRNA transfection in OVCAR3CIS cells. In kind it is cell-based. The following applies: vs NC-siRNA. On the procedure: as §1
A custom-made 384-well plate containing pre-designed forward and reverse primers was purchased from Bio-Rad (CA, USA). Total RNA was isolated from OVCAR3 and OVCAR3CIS cells using the GenElute Mammalian Total RNA Mini Kit (Millipore-Sigma, MO, USA) following the manufacturer's instructions. […] Fold-changes and cycle threshold (Ct) values were calculated by the instrument's internal software relative to OVCAR3 cells and normalized to B-actin along with controls for gDNA, PCR reaction, RT reaction, and RNA quality.
Background: Real-time PCR tracks product formation cycle by cycle.

The test system of series [2] is OVCAR3CIS cells. Kind of series: Matrigel transwell invasion assay. Format: cell-based. Particulars: vs NC-siRNA. On the procedure:
(§2) Cell invasion was measured using the Matrigel transwell method. OVCAR3CIS (3.0×10^4 cells/mL) or SKOVip1CIS (3.5×10^4 cells/mL) were seeded into 10 cm Petri dishes and transfected with siRNAs. Twenty-four hours later, serum-free matrigel (BD Biosciences CA, USA) was added onto the upper chambers of 24-well plates and incubated at 37° C. for polymerization. Transfected cells were collected and resuspended in serum-free and re-seeded onto the Matrigel-coated chambers. Medium containing 10% FBS was added to the lower area of the wells, and the plates incubated for 48 hours at 37° C. The medium was removed, and cells that invaded through the matrigel fixed and stained using ProtocolHema 3 Stain Set (Fisher Scientific MI, USA). Invaded cells were microscopically counted using a digital camera to capture images at a 20× resolution. The percentage of cell invasion was calculated using the NC-SIRNA condition as 100% cell invasion.

The test system of the next series is SKOV3IP1CIS. Kind of series: Matrigel transwell invasion assay. Format: cell-based, human. On the procedure: as §2
The subject of series [3] is Caspase-3. Kind of series: Caspase-3 fluorometric activity in OVCAR3CIS cells. Particulars: 72 hours after transfection, vs NC-siRNA. Format: cell-based. How it is done:
(§3) Caspase-3 activity was quantified using the Caspase-3/CPP32 Fluorometric Assay Kit (BioVision CA, USA) as per the manufacturer's instructions. OVCAR3CIS (3.0×10^4 cells/mL) or SKOV3ip1CIS (3.5×10^4 cells/mL) were seeded into 10 cm Petri dishes and transfected with NC-siRNA or CASC10-siRNA (2). Twenty-four hours later, the media was replaced by regular media, and seventy-two hours after transfection, cells were collected, pellets lysed, and total protein concentration determined. Equal amounts of protein were mixed with 2×Reaction Buffer and 1 mM DEVD-AFC substrate in a 96-well plate and incubated at 37° C. for 2.5 hours. Fluorescence intensity at 400 nm excitation and 505 nm emission was measured.

Series [4] deals with Caspase-3. Kind of series: Caspase-3 fluorometric activity in SKOV3ip1CIS cells. In kind it is cell-based, human. Particulars: 72 hours after transfection, vs NC-siRNA. How it is done:
as §3

Another series relates to SKOV3ip1CIS cells. Kind of series: Western blot of apoptotic-related and cell-cycle related proteins. Format: cell-based, human. How it is done: Cell pellets were lysed with complete lysis buffer and total protein concentration […]. Protein samples were separated by SDS-PAGE, blotted onto nitrocellulose membranes, blocked in either 5% non-fat dry milk (Bio-Rad) or 5% BSA (HyClone), and probed with the appropriate dilution of corresponding primary antibody. Membranes were rinsed and incubated with corresponding HRP-conjugated secondary antibody, followed by enhanced chemiluminescence and autoradiography.
On the technique in general: Immunoblotting shows a protein as a band on a membrane.

Consider “CASC10-siRNA (2): siRNA targeting CASC10 RNA, SEQ ID NO 3 and 4: 5′ GACUCUUGGAUCCAAGUUU(dT)(dT) 3′ / 5′ AAACUUGGAUCCAAGAGUC(dT)(dT) 3′ (chain 1 GACUCUUGGAUCCAAGUUUNN; chain 2 AAACUUGGAUCCAAGAGUCNN; 3' dTdT overhangs, chemistry not fully specified)”, for which the “reduction in the number of colonies” value with OVCAR3CIS cells [1] is 54%. Further, in the series on CASC10, the “decrease of CASC10 expression” value stood at 57%. Besides, in the series with OVCAR3CIS cells [2], the reduction of invasiveness was determined as 62%. Further, the “reduction of invasion ability” value in the series with SKOV3IP1CIS was determined as 58%. Further, the “increase in caspase-3 activity” value with Caspase-3 [3] was determined as 5 fold. Moreover, in the series with Caspase-3 [4], the “increase in caspase-3 activity” value is recorded as 4 fold. Besides, in the series on SKOV3ip1CIS cells, the Bcl-2 decrease is 66%, the “cleaved Caspase-3 increase” value worked out at 6 fold, the “cleaved Caspase-9 increase” value is recorded as 2 fold and the “cleaved PARP-1 increase” value is 7 fold. Further, in the series on SKOV3ip1CIS cells (vs NC-siRNA), the CDK4 protein result is on record as “reduction”, the “Cyclin E1 protein” value is “reduction” and the p27 protein levels result is “reduction”.
